In PMC12379159 (Journal of Natural Products, 2025):

Experiments:
full-length human RORγ = target: T1, full-length human RORγ (Homo sapiens, UniProt P51449); assay: Full-length RORγ luciferase assay (RORE-LUC reporter); type: cell-based; conditions: HEK293 cells
T1 construct: Encodes for the full-length human RORγ; expressed in transfected cells; host or cells: HEK293
T1 sequence (P51449 1-518): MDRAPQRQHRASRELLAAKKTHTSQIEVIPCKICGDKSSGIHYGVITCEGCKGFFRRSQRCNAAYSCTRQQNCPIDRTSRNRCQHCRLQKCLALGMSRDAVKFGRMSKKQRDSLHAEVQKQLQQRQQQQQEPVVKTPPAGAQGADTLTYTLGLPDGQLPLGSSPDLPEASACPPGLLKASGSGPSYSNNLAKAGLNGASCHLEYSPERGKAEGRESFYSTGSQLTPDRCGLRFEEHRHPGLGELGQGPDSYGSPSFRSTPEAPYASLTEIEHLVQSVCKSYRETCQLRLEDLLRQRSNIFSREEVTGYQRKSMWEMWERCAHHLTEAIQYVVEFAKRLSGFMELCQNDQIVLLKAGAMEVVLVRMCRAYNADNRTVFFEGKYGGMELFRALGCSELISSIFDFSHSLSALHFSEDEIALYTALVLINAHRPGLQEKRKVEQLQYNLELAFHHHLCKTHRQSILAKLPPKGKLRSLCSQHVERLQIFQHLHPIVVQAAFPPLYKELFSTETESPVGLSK
Procedure: (§1) For luciferase assays, 8 × 10^6 HEK293 cells were seeded on 150 mm cell culture dishes and incubated for 5 h. Afterward, cells were transfected with the calcium phosphate coprecipitation method using 5 μg of the nuclear receptor (Gal4-hRORγ or full-length human RORγ), 5 μg of a luciferase reporter (pTK-MH100 × 4-LUC for Gal4-hRORγ experiments or RORE-LUC for full-length human RORγ experiments) and 3 μg eGFP-N1 (for assessing transfection efficiency) plasmid DNA and incubated overnight. […] The medium was changed the following day, and cells were further incubated for another four to 5 h before trypsin/EDTA was added to detach them from the dishes. […] RLUs were normalized to relative fluorescence units (RFU) to account for differences in cell number and transfection efficiency and then normalized to the vehicle control. Results are expressed as fold activation relative to the vehicle control.
(§2) Concentration–response data were analyzed in GraphPad Prism version 10 by three-parameter logistic nonlinear regression, with the Hill slope constrained to a theoretical value of −1.0. An IC50 value was determined only for compounds yielding a statistically reliable fit. […] In these cases, only the maximal inhibition achieved at the highest tested concentration (I max(%) at 5 μM) is reported, calculated as follows: Imax(%)=(1−Bottom/Top)×100 (“top” = baseline activity measured at the lowest concentration, “bottom” = residual activity observed at the highest concentration, corresponding to the maximal inhibitory effect).

Gal4-hRORγ = target: T2, Gal4-hRORγ (Homo sapiens, UniProt P51449); assay: Gal4-RORγ mammalian one-hybrid luciferase assay; type: cell-based; conditions: HEK293 cells
T2 construct: Encodes for a hRORγ-LBD:Gal4-DBD fusion protein; expressed in transfected cells; host or cells: HEK293
T2 sequence (P51449 269-508 limits assumed): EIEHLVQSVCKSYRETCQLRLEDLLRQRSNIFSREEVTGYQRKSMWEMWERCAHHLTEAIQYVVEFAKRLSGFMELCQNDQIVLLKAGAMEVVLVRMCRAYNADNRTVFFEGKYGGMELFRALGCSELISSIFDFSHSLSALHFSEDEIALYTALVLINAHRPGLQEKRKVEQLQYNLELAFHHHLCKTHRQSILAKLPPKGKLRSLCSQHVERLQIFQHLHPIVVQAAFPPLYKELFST
Procedure: as §1, §2

luciferase = target: T3, luciferase (Photinus pyralis, UniProt P08659); assay: Direct luciferase inhibition check (cells transfected only with pTK-MH100 × 4-LUC and eGFP-N1); type: cell-based; conditions: 5 μM
T3 construct: expressed in transfected cells; host or cells: HEK293
Procedure: as §1

[1] = system: Il17a and Il17f (Il17a/f); assay: RT-qPCR of Il17a and Il17f in EL-4-mRORγt cells; type: cell-based, murine; conditions: indicated concentrations, 20–24 h, then 4.5-h PMA and ionomycin
Procedure: For RT-qPCR assays, 5 × 10^5 EL-4-mRORγt cells were seeded in 500 μL complete DMEM per well of a 24-well plate and treated with the vehicle control, the positive control, or the compounds of interest. After incubation for 20–24 h, cells were stimulated with Cell Activation Cocktail (PMA: 40.5 μM, ionomycin: 669.3 μM; 500X) for 4.5 h. Afterward, total RNA was isolated using the innuPREP RNA Mini Kit 2.0 according to the manufacturer’s instructions. According to the manufacturer’s instructions, 1 μg RNA was reverse-transcribed into cDNA using the High-Capacity cDNA Reverse Transcription Kit. RT-qPCR was performed using the Luna Universal qPCR Master Mix on a LightCycler 480 (Roche Diagnostics, Rotkreuz, Switzerland) according to the manufacturer’s instructions. […] Livak’s 2−ΔΔCt method was employed to determine the expression levels of RORγ target genes. This involved normalizing the target gene expression to the expression levels of the control gene 18s, followed by further normalization to the vehicle control.

T3 sequence (P08659 whole entry): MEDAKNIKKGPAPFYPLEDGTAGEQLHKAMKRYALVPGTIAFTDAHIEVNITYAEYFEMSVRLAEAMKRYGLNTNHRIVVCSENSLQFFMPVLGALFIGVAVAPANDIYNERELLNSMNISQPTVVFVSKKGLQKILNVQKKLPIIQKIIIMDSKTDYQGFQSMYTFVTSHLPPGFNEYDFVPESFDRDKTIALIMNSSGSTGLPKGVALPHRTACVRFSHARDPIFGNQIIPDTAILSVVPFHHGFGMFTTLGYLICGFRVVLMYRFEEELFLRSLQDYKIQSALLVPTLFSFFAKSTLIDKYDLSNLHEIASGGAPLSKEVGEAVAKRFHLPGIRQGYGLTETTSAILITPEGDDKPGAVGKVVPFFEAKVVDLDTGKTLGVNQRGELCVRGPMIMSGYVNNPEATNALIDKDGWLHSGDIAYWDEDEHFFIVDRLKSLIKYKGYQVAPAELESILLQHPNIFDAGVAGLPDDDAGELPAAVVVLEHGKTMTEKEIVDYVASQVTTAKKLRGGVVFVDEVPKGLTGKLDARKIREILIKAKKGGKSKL

With `C=C(C)[C@@H]1CC[C@]2(C(=O)O)CC[C@]3(C)[C@H](CC[C@@H]4[C@@]5(C)C/C(=C/c6ccco6)C(=O)C(C)(C)[C@@H]5CC[C@]43C)[C@@H]12` [Compound 15, (2Z)-2-(2-furanylmethylene)-3-oxolup-20(29)-en-28-oic acid] as the molecule, how does the “Imax(%) at 5 μM, full-length RORγ luciferase assay” value (full-length human RORγ; 5 μM) read?
The value was 69%.

And the IC50 (full-length human RORγ; 18 h treatment, up to 5 μM, read-out: IC50, full-length RORγ luciferase assay)?
Its IC50 is 900 nM.

What about the “Activity in Gal4-RORγ luciferase assay (initial screen)” value (Gal4-hRORγ; 3 μM) of the same molecule?
The value was “new inverse agonist of RORγ”.

And the “Imax(%) at 5 μM, Gal4-RORγ luciferase assay” value (Gal4-hRORγ; 5 μM)?
The value was 76%.

And the IC50 (Gal4-hRORγ; 18 h treatment, up to 5 μM)?
Its IC50 is 400 nM.

And the “Inhibition of luciferase enzyme activity” value (luciferase)?
The value was “did not inhibit luciferase enzyme activity”.

What about the Il17a expression [1] of the same molecule?
Its Il17a expression is “failed to affect Il17a expression levels”.

What about the Il17f expression [1] of the same molecule?
Its Il17f expression is “slight yet concentration-dependent decrease”.
